# Assay results taken from US20240277637A1, “CAPSAICIN DERIVATIVES IN THE TREATMENT OF IDIOPATHIC PULMONARY FIBROSIS” (aXichem AB, priority 2021, published 2024).
# “Also recorded” adds a separate entry of the source.
# Legend:
# [1] = test system: human bronchial epithelial cells; experiment: Clonogenic cell survival assay, bronchial epithelial cells with PDGF-AB (Example 4); type: cell-based; conditions: 10 ng/ml PDGF-AB, 14 days; for effect on clonogenic survival / PDGF inhibition (words): 0-10 μM
# Method: (§1) Primary isolated human bronchial epithelial cells (NHBE) were used in this assay sourced from the American Tissue Culture Collection (Normal, Human (ATCC® BEAS-2B™)) and were cultured up to passage 6. […].
# The effects of Phenylcapsaicin (2) on clonogenic survival of bronchial epithelial cells, by plating the cells with increasing numbers (102 to 5×104) in 25 cm^2 flasks were investigated. SU9518* and Phenylcapsaicin were used as positive controls. The cells were incubated with 0-10 μM (3% DMSO aqueous) of Phenylcapsaicin, SU9518, and compounds 8-12 separately in the presence of 10 ng/ml PDGF-AB (Sigma Aldrich). The flasks were returned to the incubator for 14 days, after which they were stained with crystal violet (Sigma Aldrich). The colonies were counted and the surviving percentage was determined for clonogenic survival after correcting for plating efficiency. The synthetic analogs were all calculated at 100% purity for molar concentrations.
# [2] = test system: human bronchial epithelial cells; experiment: Clonogenic cell survival assay, bronchial epithelial cells with PDGF-AB (Example 3); type: cell-based; conditions: 10 ng/ml PDGF-AB, 14 days; for effect on clonogenic survival / PDGF inhibition (words): 0-10 μM
# Method: as §1
# A clonogenic cell survival assay determines the ability of a cell to proliferate indefinitely. Cells were plated with increasing numbers (102 to 5×10^4) in 25 cm^2 flasks. SU9518, SU9518, a known inhibitor PDGF that has shown the ability to reduce radiation-induced fibroblast and endothelial cell activation, and phenylcapsaicin were used as positive controls. The cells were incubated with 0-10 μM (3% DMSO aqueous) of phenylcapsaicin, SU9518, and compounds 1 and 3-7 separately in the presence of 10 ng/ml PDGF-AB (Sigma Aldrich). The flasks were returned to the incubator for 14 days, after which they were stained with crystal violet (Sigma Aldrich). The colonies were counted and the surviving percentage was determined for clonogenic survival after correcting for plating efficiency.
SMILES,effect on clonogenic survival / PDGF inhibition (words) [1],Clonogenic Survival Assay (percent) ([1]; 0.10 uM),Clonogenic Survival Assay (percent) ([1]; 0.50 uM),Clonogenic Survival Assay (percent) ([1]; 1.00 uM),Clonogenic Survival Assay (percent) ([1]; 2.00 uM),Clonogenic Survival Assay (percent) ([1]; 5.00 uM),Clonogenic Survival Assay (percent) ([1]; 10.00 uM),effect on clonogenic survival / PDGF inhibition (words) [2],Clonogenic Survival Assay (percent) ([2]; 0.10 μM),Clonogenic Survival Assay (percent) ([2]; 0.50 μM),Clonogenic Survival Assay (percent) ([2]; 1.00 μM),Clonogenic Survival Assay (percent) ([2]; 2.00 μM),Clonogenic Survival Assay (percent) ([2]; 5.00 μM),Clonogenic Survival Assay (percent) ([2]; 10.00 μM),also measured
"COc1cc(CNC(=O)CCCCCCc2ccccc2)ccc1O [Compound 8, N-[(4-Hydroxy-3-methoxyphenyl)methyl]7-phenylheptanamide]",did not show any reduction in clonogenic cell survival,97%,100%,97%,95%,96%,97%,–,–,–,–,–,–,–,–
COc1cc(CNC(=O)CCCCC#CC2CCCCC2)ccc1OC(C)=O [Compound 6],–,–,–,–,–,–,–,some modest activity,89%,82%,76%,64%,69%,61%,effect on clonogenic survival / PDGF inhibition (words) ([2]; listed as compound 6): gave better results than compound 3
COc1cc(CNC(=O)CCCCC#CC(C)(C)C)ccc1O [Compound 4],–,–,–,–,–,–,–,did not show any PDGF inhibition,97%,95%,97%,96%,91%,91%,"effect on clonogenic survival / PDGF inhibition (words) ([2]; listed as compound 4): completely eliminated the PDGF inhibiting activity; Clonogenic Survival Assay (percent) ([2]; 10.00 μM, listed as compound 4): 91%"
"COc1cc(CNC(=O)CCCCC#Cc2ccccc2)ccc1OC(C)=O [Compound 5, 2-Methoxy-4-[(6-phenyl-5-hexynylcarbonylamino)methyl]phenyl acetate]",–,–,–,–,–,–,–,greater PDGF inhibition than both the parent PheCap (2) and the positive control SU9518; also recorded: significant improvement in PDGF inhibiting activity,78%,60%,45%,32%,30%,20%,"effect on clonogenic survival / PDGF inhibition (words) ([2]; listed as compound 5): significant improvement in PDGF inhibiting activity; Clonogenic Survival Assay (percent) ([2]; 10.00 μM, listed as compound 5): 20%"
"COc1cc(CNC(=O)CCCC/C=C/C(C)C)ccc1O [Compound 1, capsaicin]",no inhibition of PDGF was observed,97%,98%,95%,96%,96%,95%,did not show any PDGF inhibition,97%,97%,95%,96%,96%,95%,"effect on clonogenic survival / PDGF inhibition (words) ([2]; listed as capsaicin): no inhibition of PDGF was observed; Clonogenic Survival Assay (percent) ([2]; 10.00 μM, listed as capsaicin): 95%"
COc1cc(CNC(=O)CCCCC#CC(C)(C)C)ccc1OC(C)=O [Compound 7],–,–,–,–,–,–,–,did not show any PDGF inhibition,99%,96%,96%,91%,94%,93%,effect on clonogenic survival / PDGF inhibition (words) ([2]; listed as compound 7): could not mediate the negative effects of the tert-butyl group
C#CCCCCC(=O)NCc1ccc(O)c(OC)c1 [Compound 9],did not show any reduction in clonogenic cell survival,100%,97%,99%,96%,96%,99%,–,–,–,–,–,–,–,–
COc1cc(CNC(=O)CCCCC#CC2CCCCC2)ccc1O [Compound 3],–,–,–,–,–,–,–,some modest activity,91%,83%,77%,74%,71%,73%,"effect on clonogenic survival / PDGF inhibition (words) ([2]; listed as compound 3): PDGF inhibition activity dropped significantly; Clonogenic Survival Assay (percent) ([2]; 10.00 μM, listed as compound 3): 73%"
"COc1ccc(C#CCCCCC(=O)NCc2ccc(O)c(OC)c2)cc1 [Compound 11, N-[(4-Hydroxy-3-methoxyphenyl)methyl]-7-(p-methoxyphenyl)-6-heptynamide]",higher reduction than the lead phenylcapsaicin,72%,57%,51%,33%,28%,21%,–,–,–,–,–,–,–,effect on clonogenic survival / PDGF inhibition (words) ([1]; listed as compound 11): further improved
"COc1cc(CNC(=O)CCCCC#Cc2cccc3ccccc23)ccc1O [Compound 12, N-[(4-Hydroxy-3-methoxyphenyl)methyl]-7-(1-naphthyl)-6-heptynamide]",–,81%,79%,61%,53%,48%,32%,–,–,–,–,–,–,–,–
"COc1cc(CNC(=O)CCCCC#Cc2ccc([N+](=O)[O-])cc2)ccc1O [Compound 10, N-[(4-Hydroxy-3-methoxyphenyl)methyl]-7-(p-nitrophenyl)-6-heptynamide]",–,73%,55%,51%,40%,41%,39%,–,–,–,–,–,–,–,–
